How the values were obtained:
[1] = system: Escherichia coli ATCC 25922; experiment: Minimum inhibitory concentration (MIC), CLSI broth micro-dilution, E. coli; format: cell-based; details: Escherichia coli, ATCC25922, 22 h, Table 6, cation adjusted Mueller Hinton Broth + 0.002% Tween-80, 35° C.
Outline: (§1)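 Colonies grown 20 h at 35° C on Trypticase Soy agar (MRSA) or Luria agar (E. coli) were suspended in cation-adjusted Mueller Hinton broth with 0.002% Tween-80. Suspensions were added at OD600 0.0005 to 10-point twofold compound dilutions, then incubated 22 h at 35° C.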

[2] = system: Methicillin Resistant Staphylococcus aureus strain USA 200; experiment: Minimum inhibitory concentration (MIC), CLSI broth micro-dilution, S. aureus; format: cell-based; details: Staphylococcus aureus, MRSA / USA200; Table 6; MRSA USA 200; cation adjusted Mueller Hinton Broth + 0.002% Tween-80; 35° C., 22 hours
Outline: as §1

Compound	MIC [1]	MIC [2]
Cc1nc(-c2ccc(OC3CCC(C)(C)CC3)cc2)nc(C)c1C(=O)N[C@@H](CCN)C(=O)N(C)[C@@H]1C(=O)N[C@@H](C)C(=O)N[C@H](C(=O)NCC#N)Cc2ccc(OCCN)c(c2)-c2cc1ccc2OCCN (racemic) [Compound 348, rac-(8S,11S,14S)-3,18-bis(2-aminoethoxy)-N-(cyanomethyl)-11-methyl-14-[methyl-[rac-(2S)-4-amino-2-[[2-[4-(4,4-dimethylcyclohexoxy)phenyl]-4,6-dimethyl-pyrimidine-5-carbonyl]amino]butanoyl]amino]-10,13-dioxo-9,12-diazatricyclo[13.3.1.12,6]icosa-1(18),2(20),3,5,15(19),16-hexaene-8-carboxamide]	0.19 µM	0.023 µM
Cc1nc(-c2ccc(OC3C[C@H]4CCCC[C@H]4C3)cc2)nc(C)c1C(=O)N[C@@H](CCN)C(=O)N(C)[C@@H]1C(=O)N[C@@H](C)C(=O)N[C@H](C(=O)NCC#N)Cc2ccc(OCCN)c(c2)-c2cc1ccc2OCCN (mixture of isomers) [Compound 349, rac-(8S,11S,14S)-3,18-bis(2-aminoethoxy)-N-(cyanomethyl)-11-methyl-14-[methyl-[rac-(2S)-4-amino-2-[[4,6-dimethyl-2-[4-[[rac-(3aR,7aS)-2,3,3a,4,5,6,7,7a-octahydro-1H-inden-2-yl]oxy]phenyl]pyrimidine-5-carbonyl]amino]butanoyl]amino]-10,13-dioxo-9,12-diazatricyclo[13.3.1.12,6]icosa-1(18),2(20),3,5,15(19),16-hexaene-8-carboxamide]	0.094 µM	0.023 µM
Cc1nc(-c2ccc(OC3C[C@@H]4CC[C@H]3C4)cc2)nc(C)c1C(=O)N[C@@H](CCN)C(=O)N(C)[C@@H]1C(=O)N[C@@H](C)C(=O)N[C@H](C(=O)NCC#N)Cc2ccc(OCCN)c(c2)-c2cc1ccc2OCCN (mixture of isomers) [Compound 350, rac-(8S,11S,14S)-3,18-bis(2-aminoethoxy)-N-(cyanomethyl)-11-methyl-14-[methyl-[rac-(2S)-4-amino-2-[[4,6-dimethyl-2-[4-[rac-(1S,4R)-norboman-2-yl]oxyphenyl]pyrimidine-5-carbonyl]amino]butanoyl]amino]-10,13-dioxo-9,12-diazatricyclo[13.3.1.12,6]icosa-1(18),2(20),3,5,15(19),16-hexaene-8-carboxamide]	0.094 µM	0.016 µM
CCCCc1ccc(Oc2nc(C)c(C(=O)N[C@@H](CCN)C(=O)N(C)[C@@H]3C(=O)N[C@@H](C)C(=O)N[C@H](C(=O)NCC#N)Cc4ccc(OCCN)c(c4)-c4cc3ccc4OCCN)c(C)n2)cc1 (racemic) [Compound 354, rac-(8S,11S,14S)-3,18-bis(2-aminoethoxy)-N-(cyanomethyl)-11-methyl-14-[methyl-[rac-(2S)-4-amino-2-[[2-(4-butylphenoxy)-4,6-dimethyl-pyrimidine-5-carbonyl]amino]butanoyl]amino]-10,13-dioxo-9,12-diazatricyclo[13.3.1.12,6]icosa-1(18),2(20),3,5,15(19),16-hexaene-8-carboxamide]	1.5 µM	0.016 µM
CCCCc1ccc(Oc2nc(C)c(C(=O)N[C@@H](CCN)C(=O)N(C)[C@@H]3C(=O)N[C@@H](C)C(=O)N[C@H](C(=O)NCC#N)Cc4ccc(OCCN)c(c4)-c4cc3ccc4OCCN)c(C)n2)cc1CCCC (racemic) [Compound 355, rac-(8S,11S,14S)-3,18-bis(2-aminoethoxy)-N-(cyanomethyl)-11-methyl-14-[methyl-[rac-(2S)-4-amino-2-[[2-(3,4-dibutylphenoxy)-4,6-dimethyl-pyrimidine-5-carbonyl]amino]butanoyl]amino]-10,13-dioxo-9,12-diazatricyclo[13.3.1.12,6]icosa-1(18),2(20),3,5,15(19),16-hexaene-8-carboxamide]	4 µM	0.094 µM
Cc1cc(-c2ccc(OCC(C)(C)C)cc2)nc(C)c1C(=O)N[C@@H](CCN)C(=O)N(C)[C@@H]1C(=O)N[C@@H](C)C(=O)N[C@H](C(=O)NCC#N)Cc2ccc(OCCN)c(c2)-c2cc1ccc2OCCN (racemic) [Compound 359, rac-(8S,11S,14S)-3,18-bis(2-aminoethoxy)-N-(cyanomethyl)-11-methyl-14-[methyl-[rac-(2S)-4-amino-2-[[6-[4-(2,2-dimethylpropoxy)phenyl]-2,4-dimethyl-pyridine-3-carbonyl]amino]butanoyl]amino]-10,13-dioxo-9,12-diazatricyclo[13.3.1.12,6]icosa-1(18),2(20),3,5,15(19),16-hexaene-8-carboxamide]	0.064 µM	0.008 µM
Cc1cc(-c2ccc(OC(C)C)cc2)nc(C)c1C(=O)N[C@@H](CCN)C(=O)N(C)[C@@H]1C(=O)N[C@@H](C)C(=O)N[C@H](C(=O)NCC#N)Cc2ccc(OCCN)c(c2)-c2cc1ccc2OCCN (racemic) [Compound 360, rac-(8S,11S,14S)-3,18-bis(2-aminoethoxy)-N-(cyanomethyl)-11-methyl-14-[methyl-[rac-(2S)-4-amino-2-[[6-(4-isopropoxyphenyl)-2,4-dimethyl-pyridine-3-carbonyl]amino]butanoyl]amino]-10,13-dioxo-9,12-diazatricyclo[13.3.1.12,6]icosa-1(18),2(20),3,5,15(19),16-hexaene-8-carboxamide]	0.26 µM	0.066 µM
Cc1cc(-c2ccc3c(c2)CCC3(C)C)nc(C)c1C(=O)N[C@@H](CCN)C(=O)N(C)[C@@H]1C(=O)N[C@@H](C)C(=O)N[C@H](C(=O)NCC#N)Cc2ccc(OCCN)c(c2)-c2cc1ccc2OCCN (racemic) [Compound 361, rac-(8S,11S,14S)-3,18-bis(2-aminoethoxy)-N-(cyanomethyl)-11-methyl-14-[methyl-[rac-(2S)-4-amino-2-[[6-(1,1-dimethylindan-5-yl)-2,4-dimethyl-pyridine-3-carbonyl]amino]butanoyl]amino]-10,13-dioxo-9,12-diazatricyclo[13.3.1.12,6]icosa-1(18),2(20),3,5,15(19),16-hexaene-8-carboxamide]	0.13 µM	0.016 µM
CCCCCOc1ccc(-c2cc(C)c(C(=O)N[C@@H](CCN)C(=O)N(C)[C@@H]3C(=O)N[C@@H](C)C(=O)N[C@H](C(=O)NCC#N)Cc4ccc(OCCN)c(c4)-c4cc3ccc4OCCN)c(C)n2)cc1 (racemic) [Compound 362, rac-(8S,11S,14S)-3,18-bis(2-aminoethoxy)-N-(cyanomethyl)-11-methyl-14-[methyl-[rac-(2S)-4-amino-2-[[2,4-dimethyl-6-(4-pentoxyphenyl)pyridine-3-carbonyl]amino]butanoyl]amino]-10,13-dioxo-9,12-diazatricyclo[13.3.1.12,6]icosa-1(18),2(20),3,5,15(19),16-hexaene-8-carboxamide]	0.25 µM	0.063 µM
Cc1cc(-c2ccc(C(C)(C)C)cc2F)nc(C)c1C(=O)N[C@@H](CCN)C(=O)N(C)[C@@H]1C(=O)N[C@@H](C)C(=O)N[C@H](C(=O)NCC#N)Cc2ccc(OCCN)c(c2)-c2cc1ccc2OCCN (racemic) [Compound 363, rac-(8S,11S,14S)-3,18-bis(2-aminoethoxy)-N-(cyanomethyl)-11-methyl-14-[methyl-[rac-(2S)-4-amino-2-[[6-(4-tert-butyl-2-fluoro-phenyl)-2,4-dimethyl-pyridine-3-carbonyl]amino]butanoyl]amino]-10,13-dioxo-9,12-diazatricyclo[13.3.1.12,6]icosa-1(18),2(20),3,5,15(19),16-hexaene-8-carboxamide]	0.19 µM	0.016 µM
Cc1cc(-c2ccc(OC3CCCCC3)cc2)nc(C)c1C(=O)N[C@@H](CCN)C(=O)N(C)[C@@H]1C(=O)N[C@@H](C)C(=O)N[C@H](C(=O)NCC#N)Cc2ccc(OCCN)c(c2)-c2cc1ccc2OCCN (racemic) [Compound 364, rac-(8S,11S,14S)-3,18-bis(2-aminoethoxy)-N-(cyanomethyl)-11-methyl-14-[methyl-[rac-(2S)-4-amino-2-[[6-[4-(cyclohexoxy)phenyl]-2,4-dimethyl-pyridine-3-carbonyl]amino]butanoyl]amino]-10,13-dioxo-9,12-diazatricyclo[13.3.1.12,6]icosa-1(18),2(20),3,5,15(19),16-hexaene-8-carboxamide]	0.25 µM	0.016 µM
CCCCc1ccc(-c2cc(C)c(C(=O)N[C@@H](CCN)C(=O)N(C)[C@@H]3C(=O)N[C@@H](C)C(=O)N[C@H](C(=O)NCC#N)Cc4ccc(OCCN)c(c4)-c4cc3ccc4OCCN)c(C)n2)cc1 (racemic) [Compound 366, rac-(8S,11S,14S)-3,18-bis(2-aminoethoxy)-N-(cyanomethyl)-11-methyl-14-[methyl-[rac-(2S)-4-amino-2-[[6-(4-butylphenyl)-2,4-dimethyl-pyridine-3-carbonyl]amino]butanoyl]amino]-10,13-dioxo-9,12-diazatricyclo[13.3.1.12,6]icosa-1(18),2(20),3,5,15(19),16-hexaene-8-carboxamide]	0.13 µM	0.016 µM
Cc1cc(-c2ccc(C(C)(C)C)cc2N)nc(C)c1C(=O)N[C@@H](CCN)C(=O)N(C)[C@@H]1C(=O)N[C@@H](C)C(=O)N[C@H](C(=O)NCC#N)Cc2ccc(OCCN)c(c2)-c2cc1ccc2OCCN (racemic) [Compound 369, rac-(8S,11S,14S)-3,18-bis(2-aminoethoxy)-N-(cyanomethyl)-11-methyl-14-[methyl-[rac-(2S)-4-amino-2-[[6-(2-amino-4-tert-butyl-phenyl)-2,4-dimethyl-pyridine-3-carbonyl]amino]butanoyl]amino]-10,13-dioxo-9,12-diazatricyclo[13.3.1.12,6]icosa-1(18),2(20),3,5,15(19),16-hexaene-8-carboxamide]	0.75 µM	0.047 µM

Reference: US20260274892A1, “MACROCYCLIC BROAD SPECTRUM ANTIBIOTICS” (RQx Pharmaceuticals, Inc., priority 2017, published 2026)
